From PMC11316111, “Mechanism of allosteric inhibition of human p97/VCP ATPase and its disease mutant by triazole inhibitors” (Communications Chemistry, 2024)
“And” between values parts separate entries of the source, which are not always exact repeats. Identical values can stand only once. Like-named read-outs stand apart in the source and are kept apart here.

Legend:
[1] = system: HCT116 p97WT; assay: HCT116 proliferation assay (CellTiter Glo); type: cell-based; set-up: key to cellular viability of HCT116: % of DMSO control viability
Protocol: (§1) Anti-proliferative activity was measured using CellTiter Glo® Luminescent Cell Viability Assay (Promega G7572) according to the manufacturer’s procedure as described. RMPI1640 containing 5% FBS and 1% penicillin-streptomycin was used as a cell viability medium. A standard curve of HCT116 was generated for finding the linear relationship between the relative luminescence unit and the number of viable cells. […] 24 h after seeding, 8 μL of media containing 5% DMSO was added to each well, and the plate was incubated for an additional 48 h. To test the anti-proliferative activity of p97 inhibitors, we seeded HCT116 at 750 cells per well according to the linear range. […] After 48 h of treatment, cell viability was measured by adding CellTiter Glo reagent and reading the signal with a BioTek Synergy Neo plate reader (Agilent, Santa Clara, CA). The IC50 values were calculated from four replicates using the percentage of growth of treated cells versus the DMSO control. The results were analyzed using GraphPad Prism 7.0 (GraphPad, Boston, MA).

[2] = system: HCT116 p97P510S; assay: Cellular viability, resistant HCT116 p97P510S; type: cell-based
Protocol: (§2) Drug-resistant HCT116 cell lines were derived using the method previously described and with certain modifications[70],[99]. […] Drug-resistant clones were transferred into a new plate for passaging, and subsequently used to study drug resistance and identify the p97 mutations.
as §1

[3] = system: Ub^G76V-GFP/ODD-Luc HeLa cells; assay: Cellular Ub^G76V-GFP accumulation assay; type: cell-based; conditions: Table S3, four replicates, read-out: UbG76V-GFP EC50
Protocol: ImageXpress high-content confocal microscope (Molecular Devices, LLC., San Jose, CA) was used to image cells at GFP channel. The percentage of Ub^G76V-GFP accumulation (%Acc) is calculated using the following formula: […]
The IC50 values were calculated by fitting the %Acc from four replicates with various concentrations of compounds using GraphPad Prism 7.0 (GraphPad, Boston, MA).

[4] = target: T1, wild-type p97 (p97^WT) (Homo sapiens, UniProt P55072); assay: p97 ATPase activity (Biomol Green), wild-type p97; type: biochemical
T1 construct: made in house
T1 sequence (P55072 whole entry): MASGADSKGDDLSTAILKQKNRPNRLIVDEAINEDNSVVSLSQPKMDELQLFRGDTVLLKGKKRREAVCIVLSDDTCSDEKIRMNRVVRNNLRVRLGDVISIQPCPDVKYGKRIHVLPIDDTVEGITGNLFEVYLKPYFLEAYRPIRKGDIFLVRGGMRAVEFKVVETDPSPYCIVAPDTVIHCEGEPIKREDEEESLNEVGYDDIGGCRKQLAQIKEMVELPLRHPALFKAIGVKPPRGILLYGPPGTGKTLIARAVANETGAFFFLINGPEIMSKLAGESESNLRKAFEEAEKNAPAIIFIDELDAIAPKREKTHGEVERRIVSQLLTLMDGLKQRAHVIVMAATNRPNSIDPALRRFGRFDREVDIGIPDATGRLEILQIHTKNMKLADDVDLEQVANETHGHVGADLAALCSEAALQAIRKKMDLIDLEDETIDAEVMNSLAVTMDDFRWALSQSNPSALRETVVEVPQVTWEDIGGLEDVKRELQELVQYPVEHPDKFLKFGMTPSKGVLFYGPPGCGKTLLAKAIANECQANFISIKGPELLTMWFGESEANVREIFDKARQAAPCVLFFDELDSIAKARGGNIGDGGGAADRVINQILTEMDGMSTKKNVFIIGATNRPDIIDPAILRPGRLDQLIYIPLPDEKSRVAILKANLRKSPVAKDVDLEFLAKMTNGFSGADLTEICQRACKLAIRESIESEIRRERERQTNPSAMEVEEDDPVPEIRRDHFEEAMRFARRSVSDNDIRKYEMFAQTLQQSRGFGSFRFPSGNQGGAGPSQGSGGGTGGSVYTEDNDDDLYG
Protocol: Results were calculated from 6 replicates using GraphPad Prism 7.0 (GraphPad Software, Boston, MA).

[5] = system: HCT116 p97F618S; assay: Cellular viability, resistant HCT116 p97F618S; type: cell-based; conditions: Table S3, four replicates
Protocol: as §2, §1

[6] = system: HCT116 p97K512N; assay: Cellular viability, resistant HCT116 p97K512N; type: cell-based
Protocol: as §2, §1

[7] = target: T1, wild-type p97 (p97^WT); set-up: method as in PMID 26822609; conditions: read-out: IC50 (p97 ATPase); cited from earlier work
[8] = Homo sapiens, HCT-116, Table S3, cellular viability, four replicates, read-out: IC50 HCT116 p97WT
[9] = Homo sapiens, HCT-116, Table S3, four replicates

## Cc1cc(OCc2nnc(SC3CCCC3)n2-c2cccnc2)ccc1-c1ccc(S(C)(=O)=O)cc1 [NMS-873, reference compound]
[1]; [8]
  IC50: 2 µM
[2]; [9]
  IC50: 9.2 µM
[3]; Homo sapiens, HeLa
  EC50: 2 µM
[4]; inhibitor 0.000905 µM
  % ATPase activity: 106%
[4]; inhibitor 0.002716 µM
  % ATPase activity: 98%
[4]; inhibitor 0.008148 µM
  % ATPase activity: 88%
[4]; inhibitor 0.024444 µM
  % ATPase activity: 55%
[4]; inhibitor 0.073333 µM
  % ATPase activity: 28%
[4]; inhibitor 0.220000 µM
  % ATPase activity: 14%

## CC1CCCC(C)N1CCOc1cc([N+](=O)[O-])ccc1C#N (centres unmarked) [UPCDC30733]
[1]; Table S3, cellular viability, four replicates, read-out: IC50 HCT116 p97WT
  IC50: 0.68 µM
[2]; Table S3, four replicates
  IC50: 9.6 µM
[3]
  EC50: 0.53 µM
[5]
  IC50: 21 µM
[6]; Table S3, four replicates
  IC50: 25 µM

## CN1CCC(NC(=O)OCC#Cc2cc(F)c(OCc3nnc(S[C@H]4C=CCCC4)n3-c3cccnc3)cc2F)CC1 [UPCDC30766]
[1]; 0.06 µM, single replicates
  cellular viability of HCT116: 99 and 98 and 101
[1]; 0.17 µM, single replicates
  cellular viability of HCT116: 95 and 90
[1]; 0.52 µM, single replicates
  cellular viability of HCT116: 6
[1]; 14.0 µM, single replicates
  cellular viability of HCT116: 3
[1]; 42.1 µM, single replicates
  cellular viability of HCT116: 1
[1]; Homo sapiens, HCT-116, 0.06 µM, single replicates, read-out: cellular viability of HCT116
  viability at 0.06 µM: 94%
[1]; Homo sapiens, HCT-116, 0.17 µM, single replicates, read-out: cellular viability of HCT116
  viability at 0.17 µM: 97%
[1]; Homo sapiens, HCT-116, 0.52 µM, single replicates, read-out: cellular viability of HCT116
  viability at 0.52 µM: 5%
[1]; Homo sapiens, HCT-116, 1.60 µM, single replicates, read-out: cellular viability of HCT116
  viability at 1.6 µM: 4%
[1]; Homo sapiens, HCT-116, 4.70 µM, single replicates, read-out: cellular viability of HCT116
  viability at 4.7 µM: 5%
[1]; Homo sapiens, HCT-116, 14.0 µM, single replicates, read-out: cellular viability of HCT116
  viability at 14 µM: 4%
[1]; Homo sapiens, HCT-116, 42.1 µM, single replicates, read-out: cellular viability of HCT116
  viability at 42.1 µM: 2%
[1]; [8]
  IC50: 0.29 µM
[1]; Homo sapiens, HCT-116, Table S6, 48-hour treatment, read-out: Cell viability of HCT116 IC50
  IC50: 0.296 µM
[2]; [9]
  IC50: 10.3 µM
[3]; Homo sapiens, HeLa
  EC50: 0.27 µM
[6]; [9]
  IC50: 7.3 µM

## CC(C)N1CCN(CCNC2CCN(c3cccc(-c4cc5cc(F)ccc5[nH]4)c3)CC2)CC1 [UPCDC30245]
[7]
  IC50: 0.027 µM
